Measurements: the supplement of paper PMC10307832

Tests used:
[1] = compound: C[C@]1(O)C[C@@H](c2nc(-c3ccc4ccc(-c5ccccc5)nc4c3)c3c(N)nccn32)C1 [Linsitinib]; test: relative viability (nuclei count vs DMSO), 5 days (fraction); higher = more cells survive
How it was run: (§1)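 Cells of lung cancer lines were placed in 1536-well plates and kept overnight at 37 °C. Pinning then delivered five library-drug doses (not always all listed), spaced by √10, onto plates anchored with vehicle, and the cells were left 5 days without changing medium. One step fixed, permeabilised and stained them with Hoechst, and MetaXpress counted nuclei in 4× images. Viability, as a median over plates, is treated-well nuclei divided by vehicle-well nuclei, with acceptance only at control CV below 25% and at least one doubling.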

[2] = compound: Cc1ccc(C(=O)N(CCCN)[C@@H](c2nc3cc(Cl)ccc3c(=O)n2Cc2ccccc2)C(C)C)cc1 [Ispinesib]; test: as above
How it was run: as §1

Cell Line | relative viability ([1]; 0.01 µM) | relative viability ([1]; 0.03162 µM) | relative viability ([1]; 0.1 µM) | relative viability ([1]; 0.3162 µM) | relative viability ([1]; 1 µM) | relative viability ([1]; 1 µM, anchor plate) | relative viability ([2]; 0.001 µM) | relative viability ([2]; 0.003162 µM) | relative viability ([2]; 0.01 µM) | relative viability ([2]; 0.03162 µM) | relative viability ([2]; 0.1 µM)
201T | 0.988 | 0.989 | 1.01 | 0.967 | 0.911 | 1.03 | 0.978 | 1.05 | 1.03 | 0.786 | 0.367
A549 | 0.929 | 0.978 | 0.963 | 0.729 | 0.615 | 0.601 | 1.1 | 0.983 | 1.31 | 0.568 | 0.109
A-427 | 1.02 | 1.11 | 0.985 | – | 0.858 | 1.13 | 1.05 | 1.11 | 0.955 | 0.261 | 0.246
ABC-1 | 0.88 | 0.789 | 0.993 | 0.617 | 0.533 | 0.859 | 1.01 | 1.01 | 0.979 | 0.314 | 0.367
BEN | 0.945 | 0.948 | 0.832 | 0.657 | 0.933 | 0.935 | 1.12 | 1.1 | 0.983 | 0.647 | 0.378
CAL-12T | 1.01 | 0.917 | 0.951 | 0.752 | 0.879 | 0.839 | 1.05 | 1.13 | 1.1 | 0.664 | 0.18
COR-L23 | 0.975 | 1.04 | 1.07 | 0.911 | 0.998 | 0.89 | 1.11 | 1.04 | 1.19 | 0.512 | 0.171
COR-L 105 | 0.884 | 0.864 | 0.875 | 0.709 | 0.761 | 0.96 | 1.1 | 0.901 | 0.766 | 0.397 | 0.34
Calu-6 | 0.946 | 0.892 | 1.01 | 0.862 | 0.857 | 0.96 | 1.15 | 0.996 | 0.689 | 0.18 | 0.19
ChaGo-K-1 | 1.04 | 0.962 | 1.02 | 0.681 | 0.882 | – | 1.05 | 1.06 | 1.12 | 0.91 | 0.354
EBC-1 | 0.991 | 0.967 | 1.05 | 0.778 | 0.93 | 0.903 | 1.03 | 1.13 | 1.03 | 0.336 | 0.231
EKVX | 0.99 | 0.991 | 0.999 | 0.739 | 0.832 | 1.01 | 0.996 | 0.993 | 1.07 | 0.856 | 0.573
EMC-BAC-2 | 0.922 | 0.984 | 0.931 | 0.725 | 0.602 | 0.833 | 1.04 | 1.26 | 1.11 | 0.395 | 0.421
EPLC-272H | 1.02 | 1.01 | 0.799 | – | 0.879 | 1.19 | 0.868 | 1.04 | 0.909 | 0.342 | 0.151
H3255 | 0.872 | 0.933 | 0.927 | 0.74 | 0.896 | 0.972 | 0.999 | 1.15 | 1.02 | 0.701 | 0.335
HARA | 1.07 | 0.837 | 0.967 | 0.697 | 0.807 | 0.948 | 1.04 | 1.16 | 1.06 | 0.872 | 0.169
HCC-15 | 1.07 | 0.887 | 0.984 | 0.383 | 0.675 | 0.89 | 1.08 | 1.07 | 1.09 | 0.473 | 0.197
HCC-44 | 0.964 | 0.967 | 0.96 | 0.668 | 0.659 | 0.702 | 0.974 | 1.07 | 1.04 | 0.883 | 0.186
HCC-78 | 0.794 | 1.03 | 0.816 | 0.868 | 0.699 | 0.538 | 0.943 | 1.04 | 1.08 | 0.533 | 0.791
HCC-366 | 1 | 0.989 | 0.925 | 0.917 | 0.938 | 0.658 | 1.03 | 1.03 | 1.08 | 0.935 | 0.0315
HCC-827 | 1.06 | 1.02 | 1.09 | – | 1.01 | 0.967 | 1.08 | 1.07 | 1.02 | 0.929 | 0.876
HOP-62 | 1 | 1.07 | 1.09 | – | 0.791 | 1.02 | 1.06 | 1.07 | 1.26 | 0.967 | 0.338
IA-LM | 1.01 | 0.983 | 0.824 | 0.802 | 0.646 | 0.619 | 1.02 | 1.15 | 1.22 | 0.952 | 0.197
LC-2-ad | 0.941 | 0.896 | 0.967 | 0.735 | 0.756 | 0.86 | 1.04 | 1.1 | 1.07 | 0.536 | 0.175

Cell Line | relative viability ([1]; 0.01 µM) | relative viability ([1]; 0.03162 µM) | relative viability ([1]; 0.1 µM) | relative viability ([1]; 0.3162 µM) | relative viability ([1]; 1 µM) | relative viability ([1]; 1 µM, anchor plate) | relative viability ([2]; 0.001 µM) | relative viability ([2]; 0.003162 µM) | relative viability ([2]; 0.01 µM) | relative viability ([2]; 0.03162 µM) | relative viability ([2]; 0.1 µM)
LCLC-97TM1 | 0.901 | 1.01 | 0.99 | 0.329 | 0.477 | 0.186 | 1.02 | 0.964 | 1.18 | 0.6 | 0.132
LCLC-103H | 1.01 | 0.89 | 0.976 | 0.823 | 0.879 | 1.06 | 1.05 | 1.07 | 1.04 | 0.691 | 0.601
LK-2 | 0.994 | 1.09 | 0.919 | 0.594 | 0.744 | 0.6 | 1.13 | 1.19 | 1.17 | 0.705 | 0.348
LOU-NH91 | 0.873 | 0.943 | 0.991 | 1 | 0.801 | 0.942 | 0.962 | 1.09 | 1.05 | 0.646 | 0.287
LU99A | 0.915 | 0.968 | 0.899 | 0.483 | 0.738 | 0.555 | 0.976 | 1.01 | 1.03 | 0.303 | 0.269
LXF-289 | 1.04 | 0.974 | 1.04 | 0.768 | 0.977 | 0.976 | 0.98 | 1.02 | 1.13 | 0.773 | 0.178
NCI-H23 | 1.06 | 0.862 | 0.903 | 0.509 | 0.578 | 0.631 | 0.859 | 1.06 | 1.04 | 0.298 | 0.226
NCI-H322M | 0.954 | 0.993 | 0.95 | 0.814 | 0.701 | 0.95 | 1.13 | 0.945 | 0.914 | 0.472 | 0.58
NCI-H358 | 0.86 | 0.978 | 0.9 | 0.809 | 0.522 | 0.749 | 1.15 | 1 | 1 | 0.528 | 0.313
NCI-H441 | 0.951 | 0.981 | 0.986 | 0.497 | 0.636 | 0.519 | 1.06 | 1.1 | 0.765 | 0.272 | 0.297
NCI-H460 | 0.966 | 0.927 | 0.977 | 0.872 | 0.949 | 0.789 | 1.03 | 1.03 | 1.14 | 0.935 | 0.0826
NCI-H520 | 0.97 | 0.948 | 1.06 | – | 1.02 | 0.951 | 0.977 | 0.997 | 0.903 | 0.341 | 0.251
NCI-H522 | 0.969 | 0.927 | 0.838 | 0.742 | 0.872 | – | 0.965 | 1.13 | 1 | 0.815 | 0.48
NCI-H596 | 1.04 | 0.942 | 0.998 | 0.933 | 0.886 | 1.06 | 0.993 | 0.933 | 1.03 | 0.999 | 0.444
NCI-H647 | 0.968 | 0.881 | 1.03 | – | 0.859 | 1.18 | 0.995 | 1.05 | 1.18 | 0.188 | 0.153
NCI-H650 | 0.889 | 0.996 | 0.875 | – | 0.783 | 0.914 | 1.01 | 1.14 | 1.02 | 0.629 | 0.212
NCI-H661 | 0.926 | 1.09 | 1.01 | 0.853 | 1.04 | 0.63 | 0.968 | 0.983 | 0.993 | 0.742 | 0.289
NCI-H727 | 0.961 | 0.866 | 0.895 | 0.461 | 0.591 | 0.305 | 1.16 | 1.09 | 1.14 | 0.845 | 0.543
NCI-H838 | 0.975 | 0.905 | 0.906 | 0.493 | 0.667 | 1.06 | 1.05 | 1.03 | 1.08 | 0.747 | 0.343
NCI-H1299 | 1.01 | 0.999 | 1.02 | 0.918 | 1.02 | 0.977 | 1.05 | 1.05 | 1.07 | 1.05 | 0.461
NCI-H1355 | 1.02 | 0.984 | 0.947 | 0.787 | 0.615 | 0.848 | 1.08 | 1.06 | 1.09 | 0.728 | 0.274
NCI-H1395 | 0.935 | 0.79 | 1.03 | 0.806 | 0.893 | 1.17 | 0.95 | 1.06 | 0.854 | 0.44 | 0.354
NCI-H1437 | 1.01 | 0.963 | 0.997 | 0.945 | 1.01 | 1.02 | 1.07 | 1.11 | 1.14 | 0.995 | 0.247
NCI-H1563 | 1.03 | 0.924 | 1.09 | 1.3 | 0.93 | 1.22 | 1.13 | 0.97 | 0.938 | 0.927 | 0.772
